Assay results: US9265276B2, “Reducing astringency in compositions containing phenolic compounds” (Nestec S.A., priority 2008, dated 2016)
Values belong to the compound of their own block, whether it stands above or below them.

Tests used:
[1] = Stability of green tea catechins during storage at room temperature (HPLC); type: physicochemical; settings: for catechins (% recovered): room temperature, pH 6.0
Method: Soya lecithin was dispersed in distilled water to yield different concentrations (0.05%; 0.1% and 0.2%) by stirring the mixes at 37° C. for 2 h. Phosphate buffer was added to each sample to give a final concentration of 20 mM at pH 6.0 before they were pre-homogenized with an Ultraturrax at full speed. The dispersions were flushed with nitrogen for 5 minutes and then green tea extract was added for a final concentration of 0.2%. After gentle stirring for 15 min the mixes were finally homogenized with a Microfluidizer processor (Microfluidics, Newton, Mass., USA) with 1 run at 250 bar. The same protocol was followed for preparing the green tea control except that no lecithin was added. The homogenized dispersions were filled into 1 lt glass bottles and were sterilized (30 sec at 80° C.) in a water bath heated with steam.
The sterilized samples were stored at room temperature up to 25 days. No microbiological contamination with mesophilic germs or Enterobacteriaceae was detected throughout the storage test.
Green tea catechins were analysed in the fresh and stored samples by HPLC on a C-18 column, using UV detection at 280 nm. For total catechin determination samples were treated with concentrated acetic acid and the extracts were stabilised with ascorbic acid, EDTA and acetonitrile. For free catechin determination each sample was previously spun at 14,000×g for 30 min using an Eppendorf (Dr Vaudaux A G, Binningen, C H) centrifuge 5415. The resulting supernatant was then treated as previously described. Stability and binding to phospholipids were calculated for (−)-epigallocatechin (Egc), (−)-epigallocatechin-3-gallate (Egcg), and caffeine.

[2] = Free and bound catechins: binding to lecithin (centrifugation, HPLC); settings: for binding to the lecithin (in words): green tea samples with lecithin 0.05, 0.1, 0.15%
Method: Phosphate buffer was added to each sample to give a final concentration of 20 mM at pH 6.0 before they were pre-homogenized with an Ultraturrax at full speed. The dispersions were flushed with nitrogen for 5 minutes and then green tea extract was added for a final concentration of 0.2%. After gentle stirring for 15 min the mixes were finally homogenized with a Microfluidizer processor (Microfluidics, Newton, Mass., USA) with 1 run at 250 bar. […] The homogenized dispersions were filled into 1 lt glass bottles and were sterilized (30 sec at 80° C.) in a water bath heated with steam. Green tea catechins were analysed in the fresh and stored samples by HPLC on a C-18 column, using UV detection at 280 nm. For total catechin determination samples were treated with concentrated acetic acid and the extracts were stabilised with ascorbic acid, EDTA and acetonitrile. For free catechin determination each sample was previously spun at 14,000×g for 30 min using an Eppendorf (Dr Vaudaux A G, Binningen, C H) centrifuge 5415. The resulting supernatant was then treated as previously described. Stability and binding to phospholipids were calculated for (-)-epigallocatechin (Egc), (-)-epigallocatechin-3-gallate (Egcg), and caffeine.

[3] = green tea 0.2% + lecithin 0.05%, storage 0 d
[4] = green tea 0.2% + lecithin 0.05%, storage 2 d
[5] = green tea 0.2% + lecithin 0.05%, storage 9 d
[6] = green tea 0.2% + lecithin 0.05%, storage 13 d
[7] = green tea 0.2% + lecithin 0.05%, storage 22 d
[8] = green tea 0.2% + lecithin 0.1%, storage 0 d
[9] = green tea 0.2% + lecithin 0.1%, storage 2 d
[10] = green tea 0.2% + lecithin 0.1%, storage 9 d
[11] = green tea 0.2% + lecithin 0.1%, storage 13 d
[12] = green tea 0.2% + lecithin 0.1%, storage 22 d
[13] = green tea 0.2% + lecithin 0.2%, storage 0 d
[14] = green tea 0.2% + lecithin 0.2%, storage 2 d
[15] = green tea 0.2% + lecithin 0.2%, storage 9 d
[16] = green tea 0.2% + lecithin 0.2%, storage 13 d
[17] = green tea 0.2% + lecithin 0.2%, storage 22 d

catechins (% recovered) [1, 3]: 100% | catechins (% recovered) [1, 4]: 95% | catechins (% recovered) [1, 5]: 78% | catechins (% recovered) [1, 6]: 68% | catechins (% recovered) [1, 7]: 55% | catechins (% recovered) [1, 8]: 100% | catechins (% recovered) [1, 9]: 98% | catechins (% recovered) [1, 10]: 82% | catechins (% recovered) [1, 11]: 74% | catechins (% recovered) [1, 12]: 62% | catechins (% recovered) [1, 13]: 100% | catechins (% recovered) [1, 14]: 99% | catechins (% recovered) [1, 15]: 88% | catechins (% recovered) [1, 16]: 82% | catechins (% recovered) [1, 17]: 71% | catechins (% recovered) ([1]; green tea 0.2%, storage 0 d): 100% | catechins (% recovered) ([1]; green tea 0.2%, storage 2 d): 94% | catechins (% recovered) ([1]; green tea 0.2%, storage 9 d): 67% | catechins (% recovered) ([1]; green tea 0.2%, storage 13 d): 53% | catechins (% recovered) ([1]; green tea 0.2%, storage 22 d): 33% | stabilisation by lecithin during storage (in words) ([1]; storage of the green tea samples): dose-dependent stabilisation | bound catechins (% recovered in pellet) [2, 3]: 18% | bound catechins (% recovered in pellet) [2, 4]: 17% | bound catechins (% recovered in pellet) [2, 5]: 21% | bound catechins (% recovered in pellet) [2, 6]: 22% | bound catechins (% recovered in pellet) [2, 7]: 22% | bound catechins (% recovered in pellet) [2, 8]: 33% | bound catechins (% recovered in pellet) [2, 9]: 30% | bound catechins (% recovered in pellet) [2, 10]: 37% | bound catechins (% recovered in pellet) [2, 11]: 38% | bound catechins (% recovered in pellet) [2, 12]: 39% | bound catechins (% recovered in pellet) [2, 13]: 46% | bound catechins (% recovered in pellet) [2, 14]: 45% | bound catechins (% recovered in pellet) [2, 15]: 53% | bound catechins (% recovered in pellet) [2, 16]: 55% | bound catechins (% recovered in pellet) [2, 17]: 59% | bound catechins (% recovered in pellet) ([2]; green tea 0.2%, storage 0 d): 1% | bound catechins (% recovered in pellet) ([2]; green tea 0.2%, storage 2 d): 1% | bound catechins (% recovered in pellet) ([2]; green tea 0.2%, storage 9 d): 1% | bound catechins (% recovered in pellet) ([2]; green tea 0.2%, storage 13 d): 2% | bound catechins (% recovered in pellet) ([2]; green tea 0.2%, storage 22 d): 2% | binding to the lecithin (in words) [2]: interact with the added lecithin
Structure (SMILES): O=C(O[C@@H]1Cc2c(O)cc(O)cc2O[C@@H]1c1cc(O)c(O)c(O)c1)c1cc(O)c(O)c(O)c1 [Egcg, (−)-epigallocatechin-3-gallate]
percentage of bound Egcg during storage (in words) ([2]; lecithin containing green tea samples during storage): not only remained constant but rather slightly increased with time

Structure (SMILES): Cn1c(=O)c2c(ncn2C)n(C)c1=O [caffeine]
stability during storage (in words) [1]: quite stable under the chosen storage conditions

catechins (% recovered) [1, 3]: 100% | catechins (% recovered) [1, 4]: 92% | catechins (% recovered) [1, 5]: 72% | catechins (% recovered) [1, 6]: 59% | catechins (% recovered) [1, 7]: 42% | catechins (% recovered) [1, 8]: 100% | catechins (% recovered) [1, 9]: 94% | catechins (% recovered) [1, 10]: 70% | catechins (% recovered) [1, 11]: 57% | catechins (% recovered) [1, 12]: 39% | catechins (% recovered) [1, 13]: 100% | catechins (% recovered) [1, 14]: 91% | catechins (% recovered) [1, 15]: 64% | catechins (% recovered) [1, 16]: 49% | catechins (% recovered) [1, 17]: 30% | catechins (% recovered) ([1]; green tea 0.2%, storage 0 d): 100% | catechins (% recovered) ([1]; green tea 0.2%, storage 2 d): 93% | catechins (% recovered) ([1]; green tea 0.2%, storage 9 d): 65% | catechins (% recovered) ([1]; green tea 0.2%, storage 13 d): 50% | catechins (% recovered) ([1]; green tea 0.2%, storage 22 d): 28% | bound catechins (% recovered in pellet) [2, 3]: 1% | bound catechins (% recovered in pellet) [2, 4]: 3% | bound catechins (% recovered in pellet) [2, 5]: 1% | bound catechins (% recovered in pellet) [2, 6]: 1% | bound catechins (% recovered in pellet) [2, 7]: 0% | bound catechins (% recovered in pellet) [2, 8]: 2% | bound catechins (% recovered in pellet) [2, 9]: 4% | bound catechins (% recovered in pellet) [2, 10]: 2% | bound catechins (% recovered in pellet) [2, 11]: 2% | bound catechins (% recovered in pellet) [2, 12]: 2% | bound catechins (% recovered in pellet) [2, 13]: 5% | bound catechins (% recovered in pellet) [2, 14]: 6% | bound catechins (% recovered in pellet) [2, 15]: 5% | bound catechins (% recovered in pellet) [2, 16]: 5% | bound catechins (% recovered in pellet) [2, 17]: 6% | bound catechins (% recovered in pellet) ([2]; green tea 0.2%, storage 0 d): 3% | bound catechins (% recovered in pellet) ([2]; green tea 0.2%, storage 2 d): 0% | bound catechins (% recovered in pellet) ([2]; green tea 0.2%, storage 9 d): 0% | bound catechins (% recovered in pellet) ([2]; green tea 0.2%, storage 13 d): 0% | bound catechins (% recovered in pellet) ([2]; green tea 0.2%, storage 22 d): 0%
Structure (SMILES): Oc1cc(O)c2c(c1)O[C@H](c1cc(O)c(O)c(O)c1)[C@H](O)C2 [Egc, (−)-epigallocatechin]

binding to the lecithin (in words) [2]: interact with the added lecithin
Structure (SMILES): O=C(O[C@@H]1Cc2c(O)cc(O)cc2O[C@@H]1c1ccc(O)c(O)c1)c1cc(O)c(O)c(O)c1 [Ecg, epicatechin gallate]
